In ChEMBL document CHEMBL1201862, “PubChem BioAssay data set” (2004):
Calls of active or inactive are those of the source.

Assays:
[1] = cells; type: functional, cell-based
[2] = cells; type: functional, cell-based; remark: listed apart in the source
[3] = biological target: FAD-linked sulfhydryl oxidase ALR (Homo sapiens, UniProt P55789); test: inhibitors of human ALR sulfhydryl oxidase, dose response, biochemical, H2O2 detection, luminescence, cherry-pick (AID 493248)
[4] = Luminescence Cell-Based Dose Retest to Confirm Inhibitors of Cancer Stem Cells. [Related pubchem assays (depositor defined):AID2717, AID2721]; type: functional; settings: Homo sapiens
[5] = microbe, parasite or virus in culture; type: functional; settings: Mycobacterium tuberculosis
[6] = biological target: T1, Ubiquitin-conjugating enzyme E2 N (Homo sapiens, UniProt P61088); type: functional;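 also: Dose-response confirmation in a TR-FRET assay detecting UBC13-driven polyubiquitin chain formation, inhibition measured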
T1 sequence (P61088 whole entry): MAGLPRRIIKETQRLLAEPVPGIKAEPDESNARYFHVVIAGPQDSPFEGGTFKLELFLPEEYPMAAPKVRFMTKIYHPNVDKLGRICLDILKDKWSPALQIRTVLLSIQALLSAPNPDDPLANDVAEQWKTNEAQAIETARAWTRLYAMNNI

[7] = biological target: Nonstructural protein 1 (Influenza A virus, UniProt Q194T2); type: functional, Influenza A virus (A/California/07/2009(H1N1))
Sequence of Nonstructural protein 1 (Q194T2 whole entry): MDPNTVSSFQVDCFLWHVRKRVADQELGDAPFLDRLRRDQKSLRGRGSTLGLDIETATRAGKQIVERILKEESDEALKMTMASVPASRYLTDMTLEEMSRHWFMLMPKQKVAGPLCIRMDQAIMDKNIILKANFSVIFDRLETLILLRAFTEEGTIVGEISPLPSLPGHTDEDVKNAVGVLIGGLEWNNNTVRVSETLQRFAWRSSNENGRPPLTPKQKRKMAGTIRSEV

[8] = biological target: T2, Replicative DNA helicase DnaB (Mycobacterium tuberculosis, UniProt P9WMR3); test: DnaB intein splicing inhibitors, dose response, biochemical, cell-free fluorescence (AID 449749); type: functional
T2 sequence (P9WMR3 whole entry): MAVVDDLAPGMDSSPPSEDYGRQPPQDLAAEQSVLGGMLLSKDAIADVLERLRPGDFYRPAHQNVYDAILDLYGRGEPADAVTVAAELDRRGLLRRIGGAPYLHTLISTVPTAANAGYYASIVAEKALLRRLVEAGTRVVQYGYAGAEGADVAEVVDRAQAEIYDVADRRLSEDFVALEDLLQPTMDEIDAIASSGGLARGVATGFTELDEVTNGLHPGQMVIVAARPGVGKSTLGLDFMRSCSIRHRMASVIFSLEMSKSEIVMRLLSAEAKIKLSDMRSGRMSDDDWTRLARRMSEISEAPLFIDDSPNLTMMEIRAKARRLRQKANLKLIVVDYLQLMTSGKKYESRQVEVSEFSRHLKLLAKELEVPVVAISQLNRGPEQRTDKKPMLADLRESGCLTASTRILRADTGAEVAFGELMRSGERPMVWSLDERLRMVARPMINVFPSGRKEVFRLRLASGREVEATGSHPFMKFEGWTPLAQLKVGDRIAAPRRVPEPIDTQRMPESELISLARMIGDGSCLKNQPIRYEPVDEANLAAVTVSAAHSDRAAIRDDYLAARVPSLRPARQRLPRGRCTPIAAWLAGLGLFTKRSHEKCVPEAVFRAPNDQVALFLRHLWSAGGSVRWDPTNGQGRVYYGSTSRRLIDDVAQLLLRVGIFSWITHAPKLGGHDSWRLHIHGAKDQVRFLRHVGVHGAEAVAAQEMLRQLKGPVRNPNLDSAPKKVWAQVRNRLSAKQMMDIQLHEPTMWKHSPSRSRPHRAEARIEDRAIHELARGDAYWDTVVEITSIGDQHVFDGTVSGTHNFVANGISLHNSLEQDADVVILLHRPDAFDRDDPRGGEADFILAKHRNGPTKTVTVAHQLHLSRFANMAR

[9] = biological target: T3, Protein RecA (Mycobacterium tuberculosis, UniProt P9WHJ3); test: Fluorescence Cell-Free Homogeneous Dose Retest to Identify Inhibitors of RecA-Intein Splicing Activity. [Related pubchem assays (depositor defined):AID2097, AID2223, AID489010, AID492950]; type: functional
T3 sequence (P9WHJ3 whole entry): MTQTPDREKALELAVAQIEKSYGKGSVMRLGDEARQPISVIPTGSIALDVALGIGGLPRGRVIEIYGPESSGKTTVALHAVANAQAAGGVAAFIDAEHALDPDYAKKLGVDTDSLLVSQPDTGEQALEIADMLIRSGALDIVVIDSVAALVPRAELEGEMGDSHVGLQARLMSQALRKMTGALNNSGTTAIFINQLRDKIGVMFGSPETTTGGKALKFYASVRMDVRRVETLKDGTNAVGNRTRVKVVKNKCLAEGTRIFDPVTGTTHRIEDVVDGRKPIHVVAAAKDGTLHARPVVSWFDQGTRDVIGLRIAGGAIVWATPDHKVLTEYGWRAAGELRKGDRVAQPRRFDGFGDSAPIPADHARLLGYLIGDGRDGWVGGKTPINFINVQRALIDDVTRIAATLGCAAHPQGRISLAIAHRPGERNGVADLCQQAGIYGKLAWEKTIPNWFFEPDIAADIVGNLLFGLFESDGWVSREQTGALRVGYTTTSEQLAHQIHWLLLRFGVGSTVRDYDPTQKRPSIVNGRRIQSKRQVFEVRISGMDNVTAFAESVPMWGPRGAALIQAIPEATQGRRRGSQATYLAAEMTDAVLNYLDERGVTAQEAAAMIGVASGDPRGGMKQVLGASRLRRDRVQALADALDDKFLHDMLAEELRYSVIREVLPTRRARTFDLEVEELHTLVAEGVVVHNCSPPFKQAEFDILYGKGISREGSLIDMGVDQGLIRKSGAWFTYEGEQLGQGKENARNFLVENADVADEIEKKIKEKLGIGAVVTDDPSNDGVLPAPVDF

[10] = biological target: Genome polyprotein (dengue virus type 2, UniProt P29990); test: Dengue-2 NS5 methyltransferase inhibitors, primary screen, biochemical, confirmation dose response (AID 588689); type: functional
Sequence of Genome polyprotein (P29990 2492-3391 limits assumed): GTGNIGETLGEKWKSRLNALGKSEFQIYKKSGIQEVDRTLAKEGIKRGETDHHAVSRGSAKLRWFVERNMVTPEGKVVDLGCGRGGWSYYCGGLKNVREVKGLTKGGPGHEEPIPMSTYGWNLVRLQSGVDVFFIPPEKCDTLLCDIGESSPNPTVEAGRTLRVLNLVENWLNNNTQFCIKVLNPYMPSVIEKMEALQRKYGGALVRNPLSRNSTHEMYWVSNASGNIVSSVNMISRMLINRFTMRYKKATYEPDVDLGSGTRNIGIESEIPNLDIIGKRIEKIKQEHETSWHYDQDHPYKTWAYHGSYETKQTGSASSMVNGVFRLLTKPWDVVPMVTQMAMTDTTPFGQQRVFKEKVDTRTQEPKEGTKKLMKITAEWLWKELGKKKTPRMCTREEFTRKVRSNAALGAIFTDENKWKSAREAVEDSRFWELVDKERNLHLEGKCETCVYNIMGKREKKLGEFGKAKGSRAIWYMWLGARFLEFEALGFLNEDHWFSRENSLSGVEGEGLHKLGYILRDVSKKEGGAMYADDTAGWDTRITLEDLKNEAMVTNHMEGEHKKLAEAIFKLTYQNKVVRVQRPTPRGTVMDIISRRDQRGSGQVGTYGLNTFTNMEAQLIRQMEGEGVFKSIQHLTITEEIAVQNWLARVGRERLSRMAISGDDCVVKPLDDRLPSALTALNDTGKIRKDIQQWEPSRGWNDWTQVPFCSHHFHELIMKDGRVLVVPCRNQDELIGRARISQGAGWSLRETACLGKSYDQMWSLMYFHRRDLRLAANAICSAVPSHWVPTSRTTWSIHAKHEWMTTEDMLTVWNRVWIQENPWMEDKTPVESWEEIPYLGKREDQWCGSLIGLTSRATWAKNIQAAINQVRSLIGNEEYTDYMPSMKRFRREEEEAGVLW

[11] = growth suppression of beta-catenin-knockout colon cells, dose response, cell-based, HCT116, human colon tumor (AID 1045); type: functional;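 also: HCT116 colon tumor cells with beta catenin knocked out; cells exposed to compound for 60 hours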
[12] = growth suppression of PTEN-null colon cells, dose response, cell-based, HCT116 PTEN knockout (AID 1047); type: functional;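 also: HCT116 colon tumor cells with PTEN knocked out; cells exposed to compound for 60 hours before readout; potency for loss of cell viability measured by luminescence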
[13] = biological target: T4, Cytochrome P450 2C9 (Homo sapiens, UniProt P11712)
T4 sequence (P11712 whole entry): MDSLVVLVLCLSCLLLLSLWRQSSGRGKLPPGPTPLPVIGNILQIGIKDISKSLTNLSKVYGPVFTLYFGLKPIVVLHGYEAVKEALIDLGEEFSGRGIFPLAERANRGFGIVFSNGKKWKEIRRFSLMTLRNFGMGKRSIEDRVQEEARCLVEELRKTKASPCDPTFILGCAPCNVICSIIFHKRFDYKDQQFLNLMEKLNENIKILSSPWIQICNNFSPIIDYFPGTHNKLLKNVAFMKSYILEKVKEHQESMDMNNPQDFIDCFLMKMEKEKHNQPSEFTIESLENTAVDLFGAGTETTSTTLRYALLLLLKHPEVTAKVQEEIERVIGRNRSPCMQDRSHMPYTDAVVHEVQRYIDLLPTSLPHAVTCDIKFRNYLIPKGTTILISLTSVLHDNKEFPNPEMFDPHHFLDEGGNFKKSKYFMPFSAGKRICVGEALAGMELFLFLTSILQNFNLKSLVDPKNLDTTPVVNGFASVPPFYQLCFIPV

[14] = biological target: Eukaryotic translation initiation factor 4E (Mus musculus, UniProt P63073); test: eIF4E–eIF4G protein interaction inhibitors, dose response, biochemical, TR-FRET (AID 855); type: functional;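 also: potency for disrupting eIF4E binding to eIF4GI seen as loss of FRET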
Sequence of Eukaryotic translation initiation factor 4E (P63073 whole entry): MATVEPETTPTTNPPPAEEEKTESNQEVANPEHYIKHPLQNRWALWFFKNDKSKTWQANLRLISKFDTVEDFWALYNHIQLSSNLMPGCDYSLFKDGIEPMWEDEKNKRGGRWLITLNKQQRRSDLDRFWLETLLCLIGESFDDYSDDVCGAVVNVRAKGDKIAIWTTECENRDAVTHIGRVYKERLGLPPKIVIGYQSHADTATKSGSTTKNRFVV

[15] = control 3'UTR Renilla luciferase suppression, dose response, counter-screen for Shn3 inhibitor project, cell-based, Clone20-Shn3RL, cherry-picked (AID 624133); type: functional
[16] = Shn3 3'UTR reporter inhibitors, dose response, cell-based, Clone20 osteoblasts, firefly luciferase, cherry-picked (AID 624132); type: functional;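 also: firefly luciferase luminescence from reporter carrying the Shn3 3'UTR in osteoblasts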
[17] = HepG2 cell cytotoxicity, dose response, cytotoxicity control for Shn3 inhibitor project, CellTiter-Glo, cherry-picked (AID 624134); type: functional, cell-based
[18] = biological target: Large T antigen (Simian virus 40, UniProt P03070); type: functional, Betapolyomavirus macacae;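 also: Confirmatory-stage PubChem screen for compounds that inhibit SV40 T antigen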
Sequence of Large T antigen (P03070 whole entry): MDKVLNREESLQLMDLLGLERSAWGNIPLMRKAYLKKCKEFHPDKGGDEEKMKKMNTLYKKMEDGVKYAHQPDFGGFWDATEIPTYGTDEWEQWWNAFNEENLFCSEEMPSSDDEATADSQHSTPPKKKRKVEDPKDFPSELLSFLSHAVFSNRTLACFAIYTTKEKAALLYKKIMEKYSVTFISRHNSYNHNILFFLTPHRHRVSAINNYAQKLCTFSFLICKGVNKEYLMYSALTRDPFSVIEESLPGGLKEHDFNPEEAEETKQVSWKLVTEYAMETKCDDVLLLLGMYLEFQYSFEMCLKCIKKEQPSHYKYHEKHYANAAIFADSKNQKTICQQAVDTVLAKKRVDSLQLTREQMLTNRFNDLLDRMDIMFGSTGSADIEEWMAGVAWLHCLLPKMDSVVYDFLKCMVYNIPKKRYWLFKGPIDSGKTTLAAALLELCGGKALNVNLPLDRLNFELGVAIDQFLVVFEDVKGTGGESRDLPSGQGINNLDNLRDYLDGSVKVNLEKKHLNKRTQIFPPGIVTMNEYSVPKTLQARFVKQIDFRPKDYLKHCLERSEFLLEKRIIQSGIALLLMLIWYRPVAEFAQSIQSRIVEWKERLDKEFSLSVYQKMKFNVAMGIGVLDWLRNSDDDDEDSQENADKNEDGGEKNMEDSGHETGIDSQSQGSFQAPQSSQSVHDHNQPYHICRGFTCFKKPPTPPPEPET

[19] = biological target: T4, Cytochrome P450 2C9; remark: listed apart in the source
[20] = biological target: Cytochrome P450 2D6 (Homo sapiens, UniProt P10635);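 also: CYP2D6 member of a cytochrome P450 panel assay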
Sequence of Cytochrome P450 2D6 (P10635 whole entry): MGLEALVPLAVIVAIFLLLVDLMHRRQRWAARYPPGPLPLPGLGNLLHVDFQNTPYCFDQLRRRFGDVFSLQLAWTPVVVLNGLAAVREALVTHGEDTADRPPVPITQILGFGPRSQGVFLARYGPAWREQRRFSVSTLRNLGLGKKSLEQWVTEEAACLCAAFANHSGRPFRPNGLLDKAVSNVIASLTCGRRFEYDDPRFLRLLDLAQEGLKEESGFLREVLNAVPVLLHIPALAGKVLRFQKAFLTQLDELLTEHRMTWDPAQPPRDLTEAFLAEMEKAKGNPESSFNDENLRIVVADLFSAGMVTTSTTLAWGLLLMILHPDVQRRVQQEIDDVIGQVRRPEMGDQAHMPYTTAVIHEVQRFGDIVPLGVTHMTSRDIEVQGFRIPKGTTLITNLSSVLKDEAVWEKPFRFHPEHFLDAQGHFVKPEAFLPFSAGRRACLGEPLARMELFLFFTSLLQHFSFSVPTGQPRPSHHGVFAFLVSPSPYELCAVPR

[21] = biological target: Heat shock protein HSP 90-alpha (Homo sapiens, UniProt P07900); type: functional, organism-based
[22] = biological target: T5, Streptokinase A (Streptococcus pyogenes serotype M1, UniProt P10520); test: S. pyogenes streptokinase expression inhibitors, potency, dose response, plasminogen activation absorbance, OD405 (AID 1914); type: functional, Streptococcus pyogenes M1 GAS;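 also: secreted streptokinase activity via plasminogen activation per viability signal from cell pellet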
T5 sequence (P10520 whole entry): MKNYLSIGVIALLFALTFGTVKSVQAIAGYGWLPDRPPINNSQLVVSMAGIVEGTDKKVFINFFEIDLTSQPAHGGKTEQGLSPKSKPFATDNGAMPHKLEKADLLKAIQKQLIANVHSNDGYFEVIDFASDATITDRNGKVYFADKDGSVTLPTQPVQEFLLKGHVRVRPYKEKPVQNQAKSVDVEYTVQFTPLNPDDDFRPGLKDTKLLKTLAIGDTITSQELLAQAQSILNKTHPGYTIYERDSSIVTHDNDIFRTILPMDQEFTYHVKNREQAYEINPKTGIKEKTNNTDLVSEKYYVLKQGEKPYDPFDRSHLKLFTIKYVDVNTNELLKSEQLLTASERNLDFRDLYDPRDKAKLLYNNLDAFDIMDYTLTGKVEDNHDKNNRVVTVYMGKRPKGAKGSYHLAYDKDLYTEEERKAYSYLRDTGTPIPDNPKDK

[23] = test system: Streptococcus; test: Group A Streptococcus viability loss, dose response, counter-screen for streptokinase expression inhibitor project, luminescence, BacTiterGlo (AID 1915); type: functional, organism-based;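 also: potency for reduction of bacterial viability or growth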
[24] = test system: Streptococcus sp. 'group A'; test: growth inhibition of control SK(-) GAS strain, dose response, counter-screen for streptokinase expression inhibitor project, luminescence, kanamycin, BacTiterGlo, confirmation (AID 1900); type: functional, organism-based

Sequence of FAD-linked sulfhydryl oxidase ALR (P55789 whole entry): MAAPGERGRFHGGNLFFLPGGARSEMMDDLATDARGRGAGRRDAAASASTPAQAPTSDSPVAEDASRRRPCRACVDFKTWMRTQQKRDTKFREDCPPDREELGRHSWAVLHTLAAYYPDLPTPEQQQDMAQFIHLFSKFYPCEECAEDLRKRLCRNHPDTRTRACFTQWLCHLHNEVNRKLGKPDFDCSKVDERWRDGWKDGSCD

O=C1CCCC(=O)C1=CNc1cccc(C(F)(F)F)c1
EC50 [1]: > 350 µM (not active) | EC50 [2]: > 350 µM (not active)

Cc1cc(C)c2c(c1)-c1cc(C)nn1C(c1cccnc1)N2 (centres undefined)
AC50 [3]: 1.77 µM (active)

COC(=O)C1=C(C)N(Cc2ccccc2)C(NCc2cccc(Cl)c2)=N[C@H]1c1ccccc1
AC50 [4]: 6.12 µM (active) | CC50 [5]: 18.5 µM (active) | IC50 [6]: > 20 µM (inactive)

COC(=O)c1ccc(CSc2nc3c(c(=O)n2-c2ccc(F)cc2)SCC3)o1
EC50 [1]: > 350 µM (not active) | EC50 [2]: > 350 µM (not active)

O=C1NC(=S)N(C2CC2)C(=O)/C1=C/NNC(=O)c1ccccc1
IC50 [7]: 12.7 µM (active)

COc1cc(N=Nc2cccc(S(N)(=O)=O)c2)c2ccccc2c1N
AC50 [8]: 5.37 µM (active) | EC50 [9]: 11.5 µM (active) | IC50 [7]: 14.2 µM (active)

CCc1nc(SCc2cccnc2)nc(O)c1C
AC50 [3]: 0.563 µM (active)

Cc1csc(NC(=O)CSc2ccc(-c3ccccn3)nn2)n1
IC50 [7]: 10.2 µM (active)

COc1ccc(C2CC(c3ccccc3)=NN2c2ccc(Cl)c(C(=O)O)c2)cc1 (centres undefined)
IC50 [10]: 39.9 µM (active)

O=C(Nc1cccc(Cl)c1)Nc1nc(-c2ccc(Cl)cc2)cs1
EC50 [11]: 94.2 µM (active) | EC50 [12]: 28.1 µM (active)

CC1(C)C(=O)N(CCN2CCC(C(=O)c3ccc(F)cc3)CC2)c2ccccc21
AC50 [13]: inconclusive

COc1ccc2c(c1)CC[C@@H]1[C@@H]2CC[C@]2(C)C(=O)CC[C@@H]12
IC50 [14]: > 64 µM (inactive)

Cc1ccc(-c2nn(-c3ccccc3)cc2CN(Cc2ccccc2)C(=O)CCC(=O)O)o1
AC50 [3]: 0.471 µM (active)

c1ccc2c(-c3n[nH]cc3CNCCCn3ncc4ccccc43)cccc2c1
AC50 [15]: 4.62 µM (active) | AC50 [16]: 3.25 µM (active) | AC50 [17]: 56.7 µM (active)

CC(=O)Oc1ccc2c(c1)OC(c1ccccc1)CC21CC(C)(C)NC(=S)N1 (centres undefined)
IC50 [14]: > 64 µM (inactive)

Nc1ncc(N=Nc2cc(C(=O)O)ccc2Cl)s1
IC50 [10]: 73.6 µM (active) | IC50 [18]: 67.1 µM (active)

CC1Cc2ccccc2N1C(=O)C1CCCCN1S(=O)(=O)c1ccccc1 (centres undefined)
AC50 [13]: inconclusive

CCOc1ccc(NC(=O)CC(NCc2ccccn2)C(=O)O)cc1 (centres undefined)
IC50 [7]: 1.28 µM (active)

COC(=O)c1[nH]c2ccc(C)cc2c1NS(=O)(=O)c1ccc(F)cc1
AC50 [3]: 1.81 µM (active)

CCc1nnc(NC(=O)c2cc(Cl)ccn2)s1
IC50 [7]: 11.1 µM (active)

Cc1ccc(Cl)cc1N1CCN(CC(=O)NC2CCCc3ccccc32)CC1 (centres undefined)
AC50 [4]: 5.48 µM (active) | CC50 [5]: > 40 µM (active)

COc1cccc(CNC(=O)Nc2cccs2)c1
AC50 [3]: 10.4 µM (active)

Cc1ccc2c(c1)C1CN(C)CCC1N2C(=O)/C(C#N)=C/c1ccc2c(c1)OCO2 (centres undefined)
IC50 [6]: > 20 µM (inactive)

O=C(CCN1CCOCC1)c1ccccc1
EC50 [11]: 24.8 µM (active) | EC50 [12]: 31.9 µM (active)

O=C(NCCN1CCOCC1)c1nn2c(c1Cl)NC(c1ccccc1)CC2C(F)(F)F (centres undefined)
AC50 [19]: 35.5 µM (inconclusive) | AC50 [20]: 35.5 µM (inconclusive) | IC50 [14]: > 64 µM (inactive)

O=C1OC(c2ccccc2)(c2cc(Br)c(O)c(Br)c2)c2ccccc21 (centres undefined)
IC50 [10]: 35.2 µM (active) | AC50 [21]: 4.1 µM (active)

C/C(=N\NC(=S)NCC(C)(C)C)c1cc(F)cc(F)c1O
EC50 [22]: 0.501 µM (active) | EC50 [23]: 2.68 µM (active) | EC50 [24]: 1.32 µM (active) | CC50 [5]: 22.9 µM (active)

C/C(=N\NC(=O)c1cccc(N/N=C(\C)c2ccncc2)c1)c1ccncc1
AC50 [3]: 0.205 µM (active)

Cc1ccc(-c2ccc(/C=N\NC(=O)c3cc4c(ccc5ccccc54)o3)o2)cc1[N+](=O)[O-]
EC50 [11]: 6.21 µM (active) | EC50 [12]: 5.36 µM (active)

Clc1ccc(-c2ccc(/C=N/Nc3nncc(-c4ccccc4)n3)o2)cc1
EC50 [11]: 14.5 µM (active) | EC50 [12]: 16.9 µM (active)

CCCCCC(=O)Nc1ccc(C(=O)N/N=C/c2ccc([N+](=O)[O-])cc2)cc1
EC50 [11]: 4.99 µM (active) | EC50 [12]: 3.92 µM (active)

Cc1ncc(CO)c(/C=N/NC(=O)c2cccc(S(=O)(=O)N3CCCC3)c2)c1O
IC50 [7]: 4.73 µM (active) | IC50 [6]: > 20 µM (inactive)
